Measured values reported in PubChem BioAssay (NCI).
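Method: 48-hour compound exposure of cells in 96-well plates, five concentrations, linear interpolation of endpoints. Abbreviation: GI50, concentration required for 50% inhibition of growth. TGI: total growth inhibition.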

Legend:
Assay in all cases: growth of human tumour cells (NCI), 48 h
RPMI-8226 leukemia = tested on: RPMI-8226 leukemia
MCF7 breast = tested on: MCF7 breast
HL-60(TB) leukemia = tested on: HL-60(TB) leukemia
SN12C renal = tested on: SN12C renal
T-47D breast = tested on: T-47D breast
NCI/ADR-RES ovarian = tested on: NCI/ADR-RES ovarian
HOP-62 NSCLC = tested on: HOP-62 NSCLC
NCI-H23 lung = tested on: NCI-H23 lung
OVCAR-8 ovarian = tested on: OVCAR-8 ovarian
HCT-116 colon = tested on: HCT-116 colon
SF-539 CNS = tested on: SF-539 CNS
MDA-MB-231 breast = tested on: MDA-MB-231 breast
SK-MEL-28 melanoma = tested on: SK-MEL-28 melanoma
KM12 colon = tested on: KM12 colon
NCI-H226 lung = tested on: NCI-H226 lung
HT29 colon = tested on: HT29 colon
A498 renal = tested on: A498 renal
IGROV1 ovarian = tested on: IGROV1 ovarian
SW-620 colon = tested on: SW-620 colon
MDA-MB-435 = tested on: MDA-MB-435
HOP-92 NSCLC = tested on: HOP-92 NSCLC
SR leukemia = tested on: SR leukemia
HCC-2998 colon = tested on: HCC-2998 colon
NCI-H460 lung = tested on: NCI-H460 lung
SNB-19 CNS = tested on: SNB-19 CNS
786-0 renal = tested on: 786-0 renal
HCT-15 colon = tested on: HCT-15 colon
SF-295 CNS = tested on: SF-295 CNS
A549 NSCLC = tested on: A549 NSCLC
MOLT-4 leukemia = tested on: MOLT-4 leukemia
U251 CNS = tested on: U251 CNS
ACHN renal = tested on: ACHN renal
MALME-3M melanoma = tested on: MALME-3M melanoma
BT-549 breast = tested on: BT-549 breast
HS 578T breast = tested on: HS 578T breast
DU-145 prostate = tested on: DU-145 prostate
OVCAR-5 ovarian = tested on: OVCAR-5 ovarian
CCRF-CEM leukemia = tested on: CCRF-CEM leukemia
LOX IMVI melanoma = tested on: LOX IMVI melanoma
RXF 393 renal = tested on: RXF 393 renal
M14 melanoma = tested on: M14 melanoma
SNB-75 CNS = tested on: SNB-75 CNS
SK-OV-3 ovarian = tested on: SK-OV-3 ovarian
PC-3 prostate = tested on: PC-3 prostate
K-562 leukemia = tested on: K-562 leukemia
CAKI-1 renal = tested on: CAKI-1 renal
EKVX NSCLC = tested on: EKVX NSCLC
SK-MEL-5 melanoma = tested on: SK-MEL-5 melanoma
TK-10 renal = tested on: TK-10 renal
SK-MEL-2 melanoma = tested on: SK-MEL-2 melanoma
OVCAR-4 ovarian = tested on: OVCAR-4 ovarian
COLO 205 colon = tested on: COLO 205 colon
SF-268 CNS = tested on: SF-268 CNS
UO-31 renal = tested on: UO-31 renal
OVCAR-3 ovarian = tested on: OVCAR-3 ovarian
UACC-62 melanoma = tested on: UACC-62 melanoma
UACC-257 melanoma = tested on: UACC-257 melanoma

SMILES: COc1ccc(-c2cc3c(OC)c(OC)c(OC)cc3oc2=O)cc1
- GI50 (RPMI-8226 leukemia): 2.32 µM
- TGI (RPMI-8226 leukemia): 17 µM
- GI50 (MCF7 breast): 3.69 µM
- TGI (MCF7 breast): > 100 µM
- GI50 (HL-60(TB) leukemia): 2.95 µM
- TGI (HL-60(TB) leukemia): 12.8 µM
- GI50 (SN12C renal): 5.04 µM
- TGI (SN12C renal): > 100 µM
- GI50 (T-47D breast): 5.02 µM
- TGI (T-47D breast): 92.3 µM
- GI50 (NCI/ADR-RES ovarian): 2.02 µM
- TGI (NCI/ADR-RES ovarian): 7.72 µM
- GI50 (HOP-62 NSCLC): 4.68 µM
- TGI (HOP-62 NSCLC): > 100 µM
- GI50 (NCI-H23 lung): 3.49 µM
- TGI (NCI-H23 lung): > 100 µM
- GI50 (OVCAR-8 ovarian): 5 µM
- TGI (OVCAR-8 ovarian): > 100 µM
- GI50 (HCT-116 colon): 3.97 µM
- TGI (HCT-116 colon): 18.6 µM
- GI50 (SF-539 CNS): 4.09 µM
- TGI (SF-539 CNS): 22.9 µM
- GI50 (MDA-MB-231 breast): 4.91 µM
- TGI (MDA-MB-231 breast): 62.5 µM
- GI50 (SK-MEL-28 melanoma): 5.28 µM
- TGI (SK-MEL-28 melanoma): > 100 µM
- GI50 (KM12 colon): 1.79 µM
- TGI (KM12 colon): > 100 µM
- GI50 (NCI-H226 lung): 13.3 µM
- TGI (NCI-H226 lung): 78.8 µM
- GI50 (HT29 colon): 3.42 µM
- TGI (HT29 colon): 13.1 µM
- GI50 (A498 renal): 1.7 µM
- TGI (A498 renal): 6.98 µM
- GI50 (IGROV1 ovarian): 5.81 µM
- TGI (IGROV1 ovarian): > 100 µM
- GI50 (SW-620 colon): 2.79 µM
- TGI (SW-620 colon): > 100 µM
- GI50 (MDA-MB-435): 0.444 µM
- TGI (MDA-MB-435): 2.37 µM
- GI50 (HOP-92 NSCLC): 2.61 µM
- TGI (HOP-92 NSCLC): 22.4 µM
- GI50 (SR leukemia): 1.11 µM
- TGI (SR leukemia): 12.7 µM
- GI50 (HCC-2998 colon): 4.41 µM
- TGI (HCC-2998 colon): > 100 µM
- GI50 (NCI-H460 lung): 3.48 µM
- TGI (NCI-H460 lung): 17 µM
- GI50 (SNB-19 CNS): 5.95 µM
- TGI (SNB-19 CNS): > 100 µM
- GI50 (786-0 renal): 6.91 µM
- TGI (786-0 renal): > 100 µM
- GI50 (HCT-15 colon): 3.43 µM
- TGI (HCT-15 colon): > 100 µM
- GI50 (SF-295 CNS): 4.63 µM
- TGI (SF-295 CNS): > 100 µM
- GI50 (A549 NSCLC): 4.62 µM
- TGI (A549 NSCLC): > 100 µM
- GI50 (MOLT-4 leukemia): 3.92 µM
- TGI (MOLT-4 leukemia): 22.2 µM
- GI50 (U251 CNS): 4.27 µM
- TGI (U251 CNS): > 100 µM
- GI50 (ACHN renal): 7.47 µM
- TGI (ACHN renal): > 100 µM
- GI50 (MALME-3M melanoma): 4.37 µM
- TGI (MALME-3M melanoma): > 100 µM
- GI50 (BT-549 breast): 5.85 µM
- TGI (BT-549 breast): 71.6 µM
- GI50 (HS 578T breast): 2.59 µM
- TGI (HS 578T breast): 7.96 µM
- GI50 (DU-145 prostate): 4.51 µM
- TGI (DU-145 prostate): 59.9 µM
- GI50 (OVCAR-5 ovarian): 17.8 µM
- TGI (OVCAR-5 ovarian): > 100 µM
- GI50 (CCRF-CEM leukemia): 3.1 µM
- TGI (CCRF-CEM leukemia): 45.9 µM
- GI50 (LOX IMVI melanoma): 5.32 µM
- TGI (LOX IMVI melanoma): > 100 µM
- GI50 (RXF 393 renal): 5.91 µM
- TGI (RXF 393 renal): 63.5 µM
- GI50 (M14 melanoma): 3.31 µM
- TGI (M14 melanoma): > 100 µM
- GI50 (SNB-75 CNS): 3.39 µM
- TGI (SNB-75 CNS): 23 µM
- GI50 (SK-OV-3 ovarian): 4.67 µM
- TGI (SK-OV-3 ovarian): 82.2 µM
- GI50 (PC-3 prostate): 7.42 µM
- TGI (PC-3 prostate): > 100 µM
- GI50 (K-562 leukemia): 2.02 µM
- TGI (K-562 leukemia): > 100 µM
- GI50 (CAKI-1 renal): 4.59 µM
- TGI (CAKI-1 renal): > 100 µM
- GI50 (EKVX NSCLC): 8.32 µM
- TGI (EKVX NSCLC): > 100 µM
- GI50 (SK-MEL-5 melanoma): 2.57 µM
- TGI (SK-MEL-5 melanoma): 8.51 µM
- GI50 (TK-10 renal): 5.11 µM
- TGI (TK-10 renal): 65 µM
- GI50 (SK-MEL-2 melanoma): 3.48 µM
- TGI (SK-MEL-2 melanoma): > 100 µM
- GI50 (OVCAR-4 ovarian): 7.6 µM
- TGI (OVCAR-4 ovarian): > 100 µM
- GI50 (COLO 205 colon): 3.66 µM
- TGI (COLO 205 colon): 14.7 µM
- GI50 (SF-268 CNS): 4.95 µM
- TGI (SF-268 CNS): 90.9 µM
- GI50 (UO-31 renal): 5.59 µM
- TGI (UO-31 renal): 48.8 µM
- GI50 (OVCAR-3 ovarian): 2.68 µM
- TGI (OVCAR-3 ovarian): 6.45 µM
- GI50 (UACC-62 melanoma): 3.95 µM
- TGI (UACC-62 melanoma): > 100 µM
- GI50 (UACC-257 melanoma): 5.47 µM
- TGI (UACC-257 melanoma): > 100 µM
